The test system of data set [1] is H22 hepatoma. Nature of the data set: Antitumor activity on murine H22 hepatoma implanted subcutaneously in Kunming mice. The format is in vivo. The settings on record: for Tumor Weight: mean±SEM. As for the experimental part:
Antitumor studies of hydroxylated metallofullerene nanoparticles were performed on Kunming mice (female, adult, 4 weeks at the start of the experiment, body weight ranging from 20 to 22 g). The mice were subcutaneously implanted with 1×10^6 cells of H22 hepatoma (in 100 μl of saline) in each mouse at the right hind leg. Primary tumors (before administration of antitumor agents) were measured with calipers. The end point of the experiment was determined by the diameter of their leg loaded with tumor up to 2 or 2.2 centimeters. The size of tumor was monitored by daily measurement. Tumor growth curve was obtained by the diameter of the tumor as a function of the time.
The 40 mice of weight ranging from 20 to 22 g were randomly divided into 6 groups. The tumor-bearing mice were then systemically treated with hydroxylated metallofullerene nanoparticles saline solution by intraperitoneal injections once a day. Two doses of hydroxylated metallofullerene nanoparticles, 114 and 228 μg/kg corresponding to 1×10^−7 and 2×10^−7 mol/kg, respectively, were used in the experiment. The currently clinic antineoplastic agent CTX was used for the positive control, with a dose 30 mg/kg (1×10^−4 mol/kg, MW 279.1) of the currently clinic use for cancer therapy. Because of its side effects, treatments by 1×10^−4 and 5×10^−[…] of CTX continued for the first 7 days. Each mouse was administrated intraperitoneally (i.p.) a single dose of 0.2 ml per day from the second day of inoculation and continued to the day before sacrifice. The change of the tumor size was precisely measured every 24 hours.
Table 1 is the tumor weights (mean±SEM, Table 1) from 5-7 mice in each group. FIG. 1 is the Inhibition curve of hepatoma growth in mice by treatment with metallofullerol nanoparticles in two independent experiments. The growth of tumor size was monitored through measuring the diameter of the tumor every 24 hours. Tumor volumes were then calculated according to the formula: V=4πr^3/3. Tumor growth curve was obtained by the diameter of the tumor.

Data set [2] concerns H22 hepatoma tumor tissues. Description: HE staining of tumor tissues of H22 tumor-bearing mice. The data set is classed as in vivo. The source says:
The tumor morphology of HE staining of paraffin-embedded sections of tumor tissues in nanoparticle-treated, CTX-treated and the control groups, are shown in FIG. 9. In the saline control group, tumor cells heavily proliferated, arrayed regularly, and grievously invaded surrounding musculature (FIGS. 9A and B). […] When […] H22 liver tumors developed subcutaneously in mice, the envelope surrounding the neoplastic tissues, mainly composed of capillary vessels, fibrosis and lymphadenoid tissues were formed (FIG. 9C). […] In the [Gd@C82(OH)22]n-treated groups, lymphocyte hyperplasia (lymphopoiesis) and aggregated follicles around the transplanted tumor tissues were clearly seen (FIG. 9C). But in the CTX-treated mice, this envelope of fibroblasts associated with sporadic neutrophil cells was small so that it could not completely enclose the entire tumor tissues. Unlike in groups of the nanoparticle-treatment, the tumor invasion into surrounding normal muscle cells still existed in the CTX-treatment groups; although necrosis of tumor tissue was observed (FIGS. 9E and F).

Data set [3] deals with MCF-7 human breast carcinoma.
Experimental: Athymic BALB/c nu/nu female mice (weighing 16.0±1.0 g) were acclimated in the controlled environment (22±1° C. in temperature, 60±10% in humidity and a 12 h light/dark cycle) with free access to sterile distilled water and commercial laboratory complete food containing no pathogens. All animal experiments were performed in compliance with local ethics committee. The human beast cancer MCF-7 cell line was provided by the Cancer Institute and Cancer Hospital, Chinese Academy of Medical Sciences. The tumor bearing nude mice (female) were randomly divided into three groups, twelve in each group. […] A currently used clinical antitumor agent, Paclitaxel, was used as the positive control. Paclitaxel was given 4 times at intervals of 3 days at the dose of 10 mg/kg; when it was not injected, saline solution was injected instead of it. 0.9% saline solution was used as a negative control in the antitumor experiment. The whole administration process lasted 14 days after the starting point. The body weight and tumor size were used as two basic parameters in the experiments, and tumor growth and body weight curve were prepared as a function of time. Tumor weight was calculated according to the formula: Tumor weight (mg)=length (mm)×(width (mm))^2/2.
Data set [4] in a line: Serum liver and kidney function markers in H22 tumor-bearing mice. The format is in vivo. As for the experimental part:
In another aspect, the invention of hydrolated metallofullerene nanoparticles low toxicity in vivo. Liver function was evaluated with serum levels of total bilirubin levels (TBIL), alanine aminotransferase (ALT) and aspartate aminotransferase (AST). Nephrotoxicity was determined by blood urea nitrogen (BUN) and creatinine (Cr). For instance, the ALT levels of saline-treated groups are almost 4 times of the normal mean value. These indicate that implantation of H22 hepatoma itself in mice has harmed the functions of liver and kidney before treatments. […] After nanoparticle-treatment, the activities of ALT and AST (P<0.01) are reduced by 40% compared with saline control.
Table 2 is the serum TBIL, ALT, AST, and creatinine levels in tumor-bearing mice associated with metallofullerol treatment.

[5] abbreviates: Dosage I (Low): CTX 5 × 10^−5 mol/kg/day i.p., n = 6.
Setting [6] is: Dosage II (High): CTX 1 × 10^−4 mol/kg/day i.p., n = 11.

Molecules are shown by their SMILES. Marks after values point to notes of the source that are not given here.

In the case of `O=P1(N(CCCl)CCCl)NCCCO1` (centres unmarked) [CTX], in data set [1] (setting [5]), the “Inhibition Efficiency” value was 52.0% and the “Tumor Weight” value came to 1.80 ± 0.41 g. In addition, in data set [1] (setting [6]), the “Inhibition Efficiency” value was determined as 67.5% and the “Tumor Weight” value turned out to be 1.22 ± 0.86 g. In data set [2], the “Immune responses in tumor tissues (HE staining)” value is “not observed” and the “Tumor necrosis in HE-stained tumor sections” value is given as “evidently induced tumor necrosis”. Also, the “Inhibition Efficiency” value in data set [3] (CTX 71.6 μmol/kg/day, N = 10, nude mice) was 47.0%. Further, the “Change of serum ALT versus saline” value in data set [4] (CTX-treated) is recorded as “not reduced, but even slightly increased”. In addition, in data set [4] (high dose group), the “Serum ALT” value stood at 152.2 ± 71.5 IU/L, the “Serum AST” value is listed as 337 ± 53.7 ^a IU/L, the “Serum Creatinine” value stood at 51.0 ± 3.3 µmol/L and the “Serum TBIL” value stood at 1.66 ± 0.59 µmol/L. Also, in data set [4] (i.p. injections), the “Change of serum concentrations of TBIL, BUN and Cr” value is on record as “do not significantly changed”.
Compound `CC(=O)O[C@H]1C(=O)[C@@]2(C)[C@H]([C@H](OC(=O)c3ccccc3)[C@]3(O)C[C@H](OC(=O)[C@H](O)[C@@H](NC(=O)c4ccccc4)c4ccccc4)C(C)=C1C3(C)C)[C@]1(OC(C)=O)CO[C@@H]1C[C@@H]2O` [Paclitaxel] had a Mortality of mice in data set [3] (MCF-7 tumor-bearing nude mice under treatment) of 16.7%.

For the origin of these results see US8124657B2, “Metallofullerols and their applications for preparation of medicine for inhibition of tumor growth” (Institute of High Energy Physics Chinese Academy of Sciences, priority 2005, dated 2012).
